Laboratory results published in patent US20080113934A1, “USE OF DIPYRIDAMOLE OR MOPIDAMOL FOR TREATMENT AND PREVENTION OF FIBRIN-DEPENDENT MICROCIRCULATION DISORDERS” (priority 1999, published 2008).
“Also recorded” adds a separate entry of the source.

Assays:
[1] = tested on: common carotid artery of rabbits (angioplasty site); test: Study using radiolabeled platelets and fibrinogen in vivo after balloon angioplasty of the carotid artery; conditions: rabbit carotid artery, monitored four hours after angioplasty; heparin 100 U/kg bolus followed by 25 U/kg/h infusion; dipyridamole 0.25 mg/kg followed by 0.45 mg/kg/hr
Experimental: FIG. 1: Simultaneous detection of ^99Tc labeled platelets and ^123I-labeled fibrinogen at one minute intervals after angioplasty of the common carotid artery of rabbits. […] No injury measurements showing constant radioactivity.
FIG. 2: Deposition of radioactive labeled platelets (^99Tc) and fibrinogen (123I) at angioplasty site after treatment with dipyridamole (0.25 mg/kg followed by 0.45 mg/kg/hr).
The effects of dipyridamole and heparin were investigated using platelets radiolabeled with ^99Tc and fibrinogen labeled with ^123I. The method is described in Lorenz, M. et al., Nuclear Instruments and Methods in Physics Research A., 1994, 353:448-452. An energy-sensitive solid-state radiation detector was placed to surround each carotid artery in rabbits. After inducing injury through balloon angioplasty, the accretion of platelets and fibrinogen was monitored for four hours. […] Accretion was not detected in radiolabeled platelets injected 30 minutes after injury; apparently the angioplasty site had been passivated by endogenous platelet adherence. […] (FIG. 2).

[2] = ESPS-2; compared with low-dose aspirin / aspirin alone; cited from earlier work

Row | Compound | accretion (deposition) of 99Tc labeled platelets at angioplasty site [1] | accretion (deposition) of 123I-labeled fibrinogen at angioplasty site [1] | reduction of stroke risk [2]
1 | heparin | reduction of platelet as well as fibrinogen accretion; also recorded: reduced accumulation of both platelets and fibrinogen | reduction of platelet as well as fibrinogen accretion; also recorded: reduced accumulation of both platelets and fibrinogen | –
2 | OCCN(CCO)c1nc(N2CCCCC2)c2nc(N(CCO)CCO)nc(N3CCCCC3)c2n1 [dipyridamole, 2,6-bis(diethanolamino)-4,8-dipiperidino-pyrimido[5,4-d]pyrimidine] | reduced; also recorded: reduction in platelet aggregation which was similar to that seen with heparin | almost entirely blocked; also recorded: far greater with dipyridamole than with heparin | as effective as low-dose aspirin
